From patent publication US10752624B2, “Kinase inhibitors” (Origenis GmbH, priority 2012, dated 2020)

Biological target: LRRK2 (Homo sapiens, UniProt Q5S007)
Experiment: LRRK2-LRRK2 G2019S-Assay (LanthaScreen Eu Kinase Binding Assay)
Settings: 5 nM LRRK2, 10 nM tracer 236, 2 nM EU-Anti-GST antibody, 1 h at RT; read-out: LRRK2 Activities: IC50
Outline: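 Compound competition with Alexa Fluor 647 tracer 236 (10 nM) was measured after 1 h at room temperature, using 5 nM LRRK2 (wild type or mutant) bound to 2 nM Eu-anti-GST antibody. IC50 was derived from the acceptor/donor (665/615 nm) ratio using a variable-slope dose-response fit.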

Chain of LRRK2 (Q5S007 970-2527 limits assumed): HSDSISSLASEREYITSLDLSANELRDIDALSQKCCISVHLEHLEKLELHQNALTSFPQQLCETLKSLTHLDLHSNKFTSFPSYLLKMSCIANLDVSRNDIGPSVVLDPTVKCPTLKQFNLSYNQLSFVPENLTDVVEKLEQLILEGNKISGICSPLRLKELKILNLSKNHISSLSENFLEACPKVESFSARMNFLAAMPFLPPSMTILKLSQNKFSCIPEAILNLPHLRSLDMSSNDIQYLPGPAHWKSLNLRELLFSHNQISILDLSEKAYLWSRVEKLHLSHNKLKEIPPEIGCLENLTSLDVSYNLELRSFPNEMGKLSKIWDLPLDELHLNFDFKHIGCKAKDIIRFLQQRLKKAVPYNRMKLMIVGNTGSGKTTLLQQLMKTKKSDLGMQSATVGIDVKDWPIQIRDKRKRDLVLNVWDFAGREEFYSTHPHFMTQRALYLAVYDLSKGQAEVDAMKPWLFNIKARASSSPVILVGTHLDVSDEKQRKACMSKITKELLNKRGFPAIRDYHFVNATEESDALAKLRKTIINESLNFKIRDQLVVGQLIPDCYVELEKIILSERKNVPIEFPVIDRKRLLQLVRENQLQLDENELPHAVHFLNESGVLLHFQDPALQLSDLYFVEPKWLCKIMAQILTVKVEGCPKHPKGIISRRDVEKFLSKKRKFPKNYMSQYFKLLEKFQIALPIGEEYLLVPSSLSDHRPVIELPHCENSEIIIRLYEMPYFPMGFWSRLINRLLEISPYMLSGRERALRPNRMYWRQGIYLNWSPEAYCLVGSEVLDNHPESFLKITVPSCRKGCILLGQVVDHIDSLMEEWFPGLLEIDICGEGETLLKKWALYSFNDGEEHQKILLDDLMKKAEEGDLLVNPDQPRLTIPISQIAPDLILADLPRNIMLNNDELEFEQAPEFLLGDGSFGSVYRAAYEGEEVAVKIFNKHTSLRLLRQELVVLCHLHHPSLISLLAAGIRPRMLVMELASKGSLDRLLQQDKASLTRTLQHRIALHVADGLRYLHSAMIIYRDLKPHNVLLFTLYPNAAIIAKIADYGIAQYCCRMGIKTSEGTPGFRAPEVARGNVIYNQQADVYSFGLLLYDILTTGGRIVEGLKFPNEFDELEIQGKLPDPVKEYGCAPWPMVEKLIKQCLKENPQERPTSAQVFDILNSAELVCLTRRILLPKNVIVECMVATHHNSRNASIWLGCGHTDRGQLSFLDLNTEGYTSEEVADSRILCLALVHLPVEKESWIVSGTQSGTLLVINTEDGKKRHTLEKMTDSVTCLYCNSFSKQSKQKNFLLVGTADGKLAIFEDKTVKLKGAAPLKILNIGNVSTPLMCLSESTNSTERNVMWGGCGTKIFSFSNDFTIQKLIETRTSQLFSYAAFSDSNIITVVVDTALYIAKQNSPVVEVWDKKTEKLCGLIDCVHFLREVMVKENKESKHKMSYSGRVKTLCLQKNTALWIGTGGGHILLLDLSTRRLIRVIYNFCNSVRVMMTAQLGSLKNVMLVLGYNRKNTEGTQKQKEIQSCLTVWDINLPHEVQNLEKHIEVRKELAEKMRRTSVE

SMILES	IC50 [µM]
CC(C)n1cc(Nc2nc3ccc(S(C)(=O)=O)cc3c3cn[nH]c23)c(C(N)=O)n1 [Example 250, 1-isopropyl-4-((8-(methylsulfonyl)-3H-pyrazolo[3,4-c]quinolin-4-yl)amino)-1H-pyrazole-3-carboxamide]	0.1 to 1
CC(C)n1ncc(Nc2nc3ccc(S(C)(=O)=O)cc3c3cn[nH]c23)c1C(N)=O [Example 251, 1-isopropyl-4-((8-(methylsulfonyl)-3H-pyrazolo[3,4-c]quinolin-4-yl)amino)-1H-pyrazole-5-carboxamide]	0.1 to 1
COc1cccc2nc(Nc3cnn(C4CCNCC4)c3Cl)c3[nH]ncc3c12 [Example 254, N-(5-chloro-1-(piperidin-4-yl)-1H-pyrazol-4-yl)-9-methoxy-3H-pyrazolo[3,4-c]quinolin-4-amine]	< 0.01
COc1cccc2nc(Nc3cnn(C4CCOCC4)c3Cl)c3[nH]ncc3c12 [Example 255, N-(5-chloro-1-(tetrahydro-2H-pyran-4-yl)-1H-pyrazol-4-yl)-9-methoxy-3H-pyrazolo[3,4-c]quinolin-4-amine]	< 0.01
CS(=O)(=O)c1ccc2nc(Nc3cnn(C4CCOCC4)c3Cl)c3[nH]ncc3c2c1 [Example 265, N-(5-chloro-1-(tetrahydro-2H-pyran-4-yl)-1H-pyrazol-4-yl)-8-(methylsulfonyl)-3H-pyrazolo[3,4-c]quinolin-4-amine]	< 0.01
COc1cccc2nc(Nc3cnn(C(C)C)c3C(N)=O)c3[nH]ncc3c12 [Example 266, 1-isopropyl-4-((9-methoxy-3H-pyrazolo[3,4-c]quinolin-4-yl)amino)-1H-pyrazole-5-carboxamide]	0.01 to 0.1
COCCn1cc(Nc2nc3cccc(OC)c3c3cn[nH]c23)c(C(F)(F)F)n1 [Example 267, 9-methoxy-N-(1-(2-methoxyethyl)-3-(trifluoromethyl)-1H-pyrazol-4-yl)-3H-pyrazolo[3,4-c]quinolin-4-amine]	0.1 to 1
COCCn1ncc(Nc2nc3cccc(OC)c3c3cn[nH]c23)c1C(F)(F)F [Example 268, 9-methoxy-N-(1-(2-methoxyethyl)-5-(trifluoromethyl)-1H-pyrazol-4-yl)-3H-pyrazolo[3,4-c]quinolin-4-amine]	0.1 to 1
Cc1nn(CCF)cc1Nc1nc2ccc(S(C)(=O)=O)cc2c2cn[nH]c12 [Example 269, N-(1-(2-fluoroethyl)-3-methyl-1H-pyrazol-4-yl)-8-(methylsulfonyl)-3H-pyrazolo[3,4-c]quinolin-4-amine]	< 0.01
Cc1c(Nc2nc3ccc(S(C)(=O)=O)cc3c3cn[nH]c23)cnn1CCF [Example 270, N-(1-(2-fluoroethyl)-5-methyl-1H-pyrazol-4-yl)-8-(methylsulfonyl)-3H-pyrazolo[3,4-c]quinolin-4-amine]	< 0.01
COCCn1cc(Nc2nc3ccc(S(C)(=O)=O)cc3c3cn[nH]c23)c(C(F)(F)F)n1 [Example 271, N-(1-(2-methoxyethyl)-3-(trifluoromethyl)-1H-pyrazol-4-yl)-8-(methylsulfonyl)-3H-pyrazolo[3,4-c]quinolin-4-amine]	0.01 to 0.1
COCCn1ncc(Nc2nc3ccc(S(C)(=O)=O)cc3c3cn[nH]c23)c1C(F)(F)F [Example 272, N-(1-(2-methoxyethyl)-5-(trifluoromethyl)-1H-pyrazol-4-yl)-8-(methylsulfonyl)-3H-pyrazolo[3,4-c]quinolin-4-amine]	0.01 to 0.1
COCCn1cc(Nc2nc3ccc(S(C)(=O)=O)cc3c3cn[nH]c23)c(C#N)n1 [Example 274, 1-(2-methoxyethyl)-4-((8-(methylsulfonyl)-3H-pyrazolo[3,4-c]quinolin-4-yl)amino)-1H-pyrazole-3-carbonitrile]	0.01 to 0.1
COCCn1ncc(Nc2nc3cccc(OC)c3c3cn[nH]c23)c1Br [Example 275, N-(5-bromo-1-(2-methoxyethyl)-1H-pyrazol-4-yl)-9-methoxy-3H-pyrazolo[3,4-c]quinolin-4-amine]	0.01 to 0.1
COCCn1ncc(Nc2nc3cccc(OC)c3c3cn[nH]c23)c1F [Example 276, N-(5-fluoro-1-(2-methoxyethyl)-1H-pyrazol-4-yl)-9-methoxy-3H-pyrazolo[3,4-c]quinolin-4-amine]	0.01 to 0.1
COCCn1ncc(Nc2nc3ccc(S(C)(=O)=O)cc3c3cn[nH]c23)c1Br [Example 279, N-(5-bromo-1-(2-methoxyethyl)-1H-pyrazol-4-yl)-8-(methylsulfonyl)-3H-pyrazolo[3,4-c]quinolin-4-amine]	0.01 to 0.1
Cc1c(Nc2nc3ccc(S(C)(=O)=O)cc3c3cn[nH]c23)cnn1C1CCOCC1 [Example 281, N-(5-methyl-1-(tetrahydro-2H-pyran-4-yl)-1H-pyrazol-4-yl)-8-(methylsulfonyl)-3H-pyrazolo[3,4-c]quinolin-4-amine]	0.01 to 0.1
COCCn1ncc(Nc2nc3ccc(S(C)(=O)=O)cc3c3cn[nH]c23)c1C [Example 282, N-(1-(2-methoxyethyl)-5-methyl-1H-pyrazol-4-yl)-8-(methylsulfonyl)-3H-pyrazolo[3,4-c]quinolin-4-amine]	0.1 to 1
COc1ccc2nc(Nc3ccc(N4CCC(O)CC4)cc3)c3[nH]ncc3c2c1 [Example 296, 1-(4-((8-methoxy-3H-pyrazolo[3,4-c]quinolin-4-yl)amino)phenyl)piperidin-4-ol]	0.01 to 0.1
COc1cccc2c1nc(Nc1ccc(N3CCOCC3)cc1)c1[nH]ncc12 [Example 304, 6-methoxy-N-(4-morpholinophenyl)-3H-pyrazolo[3,4-c]quinolin-4-amine]	0.1 to 1
COc1cccc2c1nc(Nc1cnn(C(C)C)c1)c1[nH]ncc12 [Example 305, N-(1-isopropyl-1H-pyrazol-4-yl)-6-methoxy-3H-pyrazolo[3,4-c]quinolin-4-amine]	0.01 to 0.1
COCCCn1cc(Nc2nc3c(OC)cccc3c3cn[nH]c23)cn1 [Example 306, 6-methoxy-N-(1-(3-methoxypropyl)-1H-pyrazol-4-yl)-3H-pyrazolo[3,4-c]quinolin-4-amine]	0.1 to 1
COc1cc(OC)c2nc(Nc3ccc(C(=O)N4CCOCC4)cc3)c3[nH]ncc3c2c1 [Example 308, (4-((6,8-dimethoxy-3H-pyrazolo[3,4-c]quinolin-4-yl)amino)phenyl)(morpholino)methanone]	0.01 to 0.1
CC(C)(O)Cn1cc(Nc2nc3ccc(S(C)(=O)=O)cc3c3cn[nH]c23)cn1 [Example 317, 2-methyl-1-(4-((8-(methylsulfonyl)-3H-pyrazolo[3,4-c]quinolin-4-yl)amino)-1H-pyrazol-1-yl)propan-2-ol]	0.01 to 0.1
CCN1C(=O)COc2ccc(Nc3nc4ccc(OC)cc4c4c[nH]nc34)cc21 [Example 318, 4-ethyl-6-((8-methoxy-2H-pyrazolo[3,4-c]quinolin-4-yl)amino)-2H-benzo[b][1,4]oxazin-3(4H)-one]	0.1 to 1
COc1ccc2nc(Nc3cnn(-c4ccccn4)c3)c3n[nH]cc3c2c1 [Example 319, 8-methoxy-N-(1-(pyridin-2-yl)-1H-pyrazol-4-yl)-2H-pyrazolo[3,4-c]quinolin-4-amine]	0.01 to 0.1
COc1ccc2nc(Nc3cnn(C(C)c4ccccc4)c3)c3n[nH]cc3c2c1 (stereo not shown) [Example 320, 8-methoxy-N-(1-(1-phenylethyl)-1H-pyrazol-4-yl)-2H-pyrazolo[3,4-c]quinolin-4-amine]	0.1 to 1
COc1ccc2nc(Nc3ccc4c(c3)N(C)C(=O)CO4)c3n[nH]cc3c2c1 [Example 322, 6-((8-methoxy-2H-pyrazolo[3,4-c]quinolin-4-yl)amino)-4-methyl-2H-benzo[b][1,4]oxazin-3(4H)-one]	0.1 to 1
